The text below walks through data of patent publication EP2363494A9, “Improvement of transfection results of non-viral gene delivery systems by influencing the congenital immune system” (Biontex Laboratories Gmbh, priority 2007, dated 2009).

In data set [1] the test system is HeLa-Luc Zellen. In words: Trypan blue vitality determination after siRNA transfection in presence of TLR7/8 agonists (Beispiel 9). The following applies: Trypanblau after 48 h, Blindprobe 95,9. Type of data set: cell-based. The procedure: Zunächst werden die ersten 5 Wells der ersten 3 Reihen einer 48 Well Platte mit jeweils 30 µl PBS gefüllt. Die Stocklösung der anti-Luciferase-siRNA und der non-specific-control-siRNA wird mit PBS auf eine Konzentration von 1 pmol/10 µl eingestellt. Anschließend werden jeweils 10 µl der Arbeitslösung der anti-Luciferase-siRNA in die ersten 3 Wells der der ersten drei Reihen der 48 Well Platte pipettiert. In die jeweils vierten Wells werden jeweils 10 µl der Arbeitslösung der non-specific-control-siRNA pipettiert. Das Metafectene Pro Reagenz wird mit PBS 1:300 verdünnt. Von dieser Verdünnung werden jeweils 20 µl in jedes Well mit siRNA gegeben. Anschließend werden die Lipoplexe für 20 Minuten bei Raumtemperatur inkubiert. Danach werden pro Well 250 µl Zellsuspension zugegeben. Analog wird eine zweite Platte bestückt.
In die ersten 2 Spalten der beiden 48 Well Platte werden 2 verschiedene Agonisten hinzugegeben. Dabei werden 3 verschiedene Arbeitskonzentrationen der Agonisten verwendet. Die Agonisten liegen lyophilisiert vor. Sie werden mit endotoxin-freiem Wasser zu Stocklösungen mit der Konzentration 100µg/ml gelöst. Die Stocklösungen werden jeweils 1:10 mit Wasser zu Arbeitslösungen verdünnt.
Von der ssRNA40/LyoVec-Arbeitslösung werden in B1 0,78 µl (=0,5 µg/ml Endkonzentration ssRNA40), in B2 15,5 µl (=5µg/ml) und in B3 31µl (=10µg/ml) pipettiert. Nach der Zugabe der Agonisten werden die beiden 48 Well Platten für 48 Stunden im CO2-Inkubator inkubiert.
Nach einer Inkubationszeit von 48 Stunden werden die Zellen einer Platte trypsiniert und mittels einer Neubauer-Zählkammer eine Vitalitätbestimmung mit Trypanblau für jedes Well durchgeführt.
Es wurden zwischen 40 und 70 Zellen ausgewertet.

In data set [2] the test system is HeLa-Luc Zellen. The data set is described as follows: Luciferase assay after anti-Luciferase siRNA transfection in presence of TLR7/8 agonists (Beispiel 9). To be noted: 48 h. The data set is classed as cell-based.
Procedure: Anschließend werden 120 µl Luciferase-Lysispuffer hinzugegeben.
Alle Messungen wurden dreifach durchgeführt.
Von der Imiquimod-Arbeitslösung werden in A1 0,78 µl (=0,25 µg/ml Endkonzentration), in A2 15,5 µl (=5µg/ml) und in A3 31 µl (=10µg/ml) pipettiert. Von der ssRNA40/LyoVec-Arbeitslösung werden in B1 0,78 µl (=0,5 µg/ml Endkonzentration ssRNA40), in B2 15,5 µl (=5µg/ml) und in B3 31µl (=10µg/ml) pipettiert. Nach der Zugabe der Agonisten werden die beiden 48 Well Platten für 48 Stunden im CO2-Inkubator inkubiert.
For data set [3], the system named is HeLa-Luc Zellen. The data set is described as follows: Luciferase assay after anti-Luciferase siRNA transfection in presence of kinase inhibitors (Beispiel 8). To be noted: 2 h before anti-Luciferase-siRNA/Metafectene Pro lipoplex.
For a further data set, the system named is HeLa Zellen. The following applies: Vorinkubationszeit 2h, inhibitor replaced and transfection repeated on day 3, Entwicklungszeit 10 min, 0µM well 0,63. The procedure: Die Effizienz der Transfektion wird mit dem β-Galaktosidase Assay Kit nach Vorgaben des Herstellers durchgeführt. Die Platten werden so lange entwickelt bis im Mikroplate-Reader eine Gelbfärbung mit einer Absorption von 1-2 gemessen wird und anschließend sofort gestoppt. Die Inkubationszeit wird anschließend notiert. Die Werte werden mit dem Mikroplate-Reader ausgelesen, und der Mittelwert gebildet.
1. Tag: Es werden HeLa Zellen in eine 48 Well Platte ausgesät.
1 mg Inhibitor wird in 100 µl DMSO gelöst (Stocklösung). Anschließend wird mit PBS 1:20 verdünnt (Arbeitslösung). Anschließend werden die Wells der 48 Well Platte mit folgenden Mengen Inhibitor versorgt:
Anschließend werden die Lipoplexe hergestellt. […] Jetzt werden beide Lösungen gemischt und 15 min inkubiert. Am Ende werden jeweils 50 µl der Lipoplexlösung in jedes Well gegeben.
Die Schritte Lipoplexherstellung und Transfektion werden ohne Inkubationszeit wiederholt.
Analog Beispiel 1 (mit halben Mengen)

Where two headings read alike, the source gives them in different places.

For `CC(C)Cn1cnc2c(N)nc3ccccc3c21` [Imiquimod, 1-(2-methylpropyl)-1H-imidazol[4,5-c]quinolin-4-amine], the Vitalität is recorded as 98,6% in the data set with HeLa-Luc Zellen [1] (Imiquimod 0,5µg/ml + anti-Luciferase-siRNA/Metafectene Pro), 88,7% with HeLa-Luc Zellen [1] (Imiquimod 5µg/ml + anti-Luciferase-siRNA/Metafectene Pro) and 88,6% with HeLa-Luc Zellen [1] (Imiquimod 10µg/ml + anti-Luciferase-siRNA/Metafectene Pro). Further, the “Luciferase Assay, Mittelwert von 3x3” value is on record as 676 RLU/µl Zellextrakt/sec in the data set with HeLa-Luc Zellen [2] (Imiquimod 0,25 µg/ml Endkonzentration (0,5µg/ml in the 30th table) + anti-Luciferase-siRNA/Metafectene Pro, same plate row: siRNA alone 1604, non-specific control 3016, blank 2936); 349 RLU/µl Zellextrakt/sec in the data set on HeLa-Luc Zellen [2] (Imiquimod 5µg/ml + anti-Luciferase-siRNA/Metafectene Pro, same plate row: siRNA alone 1302, non-specific control 2753, blank 2673); 116 RLU/µl Zellextrakt/sec in the data set with HeLa-Luc Zellen [2] (Imiquimod 10µg/ml + anti-Luciferase-siRNA/Metafectene Pro, same plate row: siRNA alone 1481, non-specific control 2822, blank 2476).
As for `C[S+]([O-])c1ccc(-c2nc(-c3ccncc3)c(-c3ccc(F)cc3)[nH]2)cc1` (stereo not shown) [SB203580], the “Luciferase Assay, Mittelwert von 3x3 Messungen” value with HeLa-Luc Zellen [3] (SB203580 5µM, one transfection, 0µM 1027, non-specific-control-siRNA 2029, untransfected 2504) stood at 693 RLU/µl Zellextrakt/sec; in the data set with HeLa-Luc Zellen [3] (SB203580 5µM, transfection repeated on day 3, 0µM 976, non-specific-control-siRNA 2135, untransfected 2531), 696 RLU/µl Zellextrakt/sec; in the data set with HeLa-Luc Zellen [3] (SB203580 10µM, one transfection, 0µM 1027, non-specific-control-siRNA 2029, untransfected 2504), 747 RLU/µl Zellextrakt/sec; in the data set with HeLa-Luc Zellen [3] (SB203580 10µM, transfection repeated on day 3, 0µM 976, non-specific-control-siRNA 2135, untransfected 2531), 656 RLU/µl Zellextrakt/sec; in the data set on HeLa-Luc Zellen [3] (SB203580 20µM, one transfection, 0µM 1027, non-specific-control-siRNA 2029, untransfected 2504), 630 RLU/µl Zellextrakt/sec; with HeLa-Luc Zellen [3] (SB203580 20µM, transfection repeated on day 3, 0µM 976, non-specific-control-siRNA 2135, untransfected 2531) it was 617 RLU/µl Zellextrakt/sec. Moreover, the “Luciferase Assay, Mittelwert von 3x3 Messungen” value in the data set with HeLa-Luc Zellen [3] (SB203580 30µM, one transfection, 0µM 1027, non-specific-control-siRNA 2029, untransfected 2504) is 671 RLU/µl Zellextrakt/sec; in the data set with HeLa-Luc Zellen [3] (SB203580 30µM, transfection repeated on day 3, 0µM 976, non-specific-control-siRNA 2135, untransfected 2531), 587 RLU/µl Zellextrakt/sec; in the data set with HeLa-Luc Zellen [3] (SB203580 40µM, one transfection, 0µM 1027, non-specific-control-siRNA 2029, untransfected 2504) it was 669 RLU/µl Zellextrakt/sec; with HeLa-Luc Zellen [3] (SB203580 40µM, transfection repeated on day 3, 0µM 976, non-specific-control-siRNA 2135, untransfected 2531), 610 RLU/µl Zellextrakt/sec.
For the compound `N#CC(=C(/N)Sc1ccccc1N)/C(C#N)=C(/N)Sc1ccccc1N` [U0126, 1,4-Diamino-2,3-dicyano-1,4-bis(o-amionophenylmercapto)butadiene], the “Absorption β-Galaktosidase Assay, Mittelwert von 3 Messungen” value in the data set with HeLa Zellen (5µM inhibitor) is recorded as 0,72; with HeLa Zellen (10µM inhibitor), 0,92; with HeLa Zellen (25µM inhibitor), 0,79; with HeLa Zellen (50µM inhibitor), 0,90; in the data set with HeLa Zellen (75µM inhibitor) it was 0,97. The “Luciferase Assay, Mittelwert von 3x3 Messungen” value in the data set on HeLa-Luc Zellen [3] (U0126 5µM, one transfection, 0µM 1157, non-specific-control-siRNA 1829, untransfected 1674) is recorded as 375 RLU/µl Zellextrakt/sec; in the data set with HeLa-Luc Zellen [3] (U0126 5µM, transfection repeated on day 3, 0µM 1001, non-specific-control-siRNA 2290, untransfected 2249), 641 RLU/µl Zellextrakt/sec; in the data set with HeLa-Luc Zellen [3] (U0126 10µM, one transfection, 0µM 1157, non-specific-control-siRNA 1829, untransfected 1674) it was 567 RLU/µl Zellextrakt/sec; in the data set with HeLa-Luc Zellen [3] (U0126 10µM, transfection repeated on day 3, 0µM 1001, non-specific-control-siRNA 2290, untransfected 2249), 162 RLU/µl Zellextrakt/sec; in the data set with HeLa-Luc Zellen [3] (U0126 25µM, one transfection, 0µM 1157, non-specific-control-siRNA 1829, untransfected 1674), 268 RLU/µl Zellextrakt/sec; with HeLa-Luc Zellen [3] (U0126 25µM, transfection repeated on day 3, 0µM 1001, non-specific-control-siRNA 2290, untransfected 2249), 179 RLU/µl Zellextrakt/sec. Also, the “Luciferase Assay, Mittelwert von 3x3 Messungen” value with HeLa-Luc Zellen [3] (U0126 50µM, one transfection, 0µM 1157, non-specific-control-siRNA 1829, untransfected 1674) is given as 193 RLU/µl Zellextrakt/sec; in the data set with HeLa-Luc Zellen [3] (U0126 50µM, transfection repeated on day 3, 0µM 1001, non-specific-control-siRNA 2290, untransfected 2249), 171 RLU/µl Zellextrakt/sec; in the data set with HeLa-Luc Zellen [3] (U0126 75µM, one transfection, 0µM 1157, non-specific-control-siRNA 1829, untransfected 1674), 260 RLU/µl Zellextrakt/sec; in the data set on HeLa-Luc Zellen [3] (U0126 75µM, transfection repeated on day 3, 0µM 1001, non-specific-control-siRNA 2290, untransfected 2249), 103 RLU/µl Zellextrakt/sec.
